Assay results as given in paper PMC8269107, “Lipidation of Temporin-1CEb Derivatives as a Tool for Activity Improvement, Pros and Cons of the Approach” (International Journal of Molecular Sciences, 2021).
Values after ≈ are worked out from the molar mass of the structure shown. Where a SMILES comes first, the peptide text is derived from it. [ ]: non-standard residue; d: D form. The star is where a group is joined. Palmitoyl = CCCCCCCCCCCCCCCC(=O)*; Lauroyl = CCCCCCCCCCCC(=O)*; Pentanoyl = CCCCC(=O)*; AEEA = NCCOCCOCC(=O)O; Ahx = NCCCCCC(=O)O; βAla = NCCC(=O)O

How the values were obtained:
[1] = tested on: B. cereus PCM 482; assay: MIC, broth microdilution; type: cell-based, Bacillus cereus; settings: B. cereus PCM 482, 24 h
Excerpt: (§1) Escherichia coli (PCM 2057 = ATCC 25922), Staphylococcus aureus (PCM 2054 = ATCC 25923), Staphylococcus epidermidis (PCM 2118 = ATCC 14990), Bacillus subtilis (PCM 2224 = ATCC 9799), Bacillus cereus (PCM 482 = ATCC 10702) and Pseudomonas aeruginosa (PCM 499 = ATCC 10145) were obtained from the Polish Collection of Microorganisms. Fungi strains Candida albicans (CCM 8186 = CNTC 49/64), Candida glabrata (CCM 8270 = ATCC 90030), Candida parapsilosis (CCM 8260 = ATCC 22019) and Candida krusei (CCM 8271 = ATCC 6258) were acquired from the Czech Collection of Microorganisms. S. aureus USA300 (wild type strain), the reference strain of Klebsiella pneumoniae (ATCC 13883) and clinical isolates of Pseudomonas aeruginosa (PA1, PA2) collected from nonrelated patients admitted to the Stefan Zeromski Specialist Municipal Hospital in Krakow (Poland) were kindly provided by the research group of the Department of Microbiology, Faculty of Biochemistry, Biophysics and Biotechnology, Jagiellonian University, Krakow, Poland.
(§2) Luria-Bertani broth (LB) and Sabouraud Dextrose broth (SB) (Biocorp, Poland) were used for cultivation of bacteria and fungi strains, respectively. The antimicrobial activity of the peptides were analyzed through determination of MIC (minimal inhibitory concentration) parameters according to Clinical and Laboratory Standards (CLSI) guidelines developed for aerobic bacteria and yeasts, respectively. Mueller-Hinton broth (MHB) was used as the working medium for all bacterial strains, while in the case of fungi, RPMI-1640 (with L-glutamine, without sodium bicarbonate) growth medium buffered with MOPS (morpholinepropanesulfonic acid) and supplemented with 2% glucose was used. Inoculum was prepared from freshly grown cultures of microorganisms at their exponential phase of growth. […] Plates were then incubated for 24 h at 37 °C in the case of bacteria and at 35 °C in the case of fungi. After that time, absorbance was read at 590 nm with a Perkin Elmer plate reader. Cultures without peptide were treated as positive control, while uninoculated media were defined as negative control. All measurements were run at least in triplicate.

[2] = tested on: C. albicans (CCM 8186) biofilm; assay: Biofilm inhibition assay (MTT); type: cell-based, Candida albicans; settings: C. albicans biofilm development, 24 h post-inoculation
Description: In the case of bacteria, an overnight culture of S. aureus in Tryptic Soy Broth (TSB) supplemented with 2% glucose (TSB/+G) was used to prepare inoculum for the experiments. Briefly, 5 mL of 24 h culture was centrifuged at 5000× g, washed with sterile PBS and suspended in a fresh 2 × concentrated TSB/+G. In the case of yeasts, the overnight culture of C. albicans in Sabouraud dextrose broth (SB) was used for inoculum preparation. Similar to above, 5 mL of 24 h culture was centrifuged, washed with PBS and then suspended in sterile 2 × concentrated RPMI-1640 medium (with L-glutamine, without sodium bicarbonate) supplemented with 2% glucose (RPMI-1640/+G). In both cases, the cell concentration of the inoculum was about 1 × 10^7 cells per ml.
For the determination of the inhibitory concentration that reduced biofilm development by 50% (BIC50^, expressed in µg/mL), 100 µL inoculum in 2 × concentrated RPMI-1640/+G medium (in the case of C. albicans) or 2 x concentrated TSB/+G broth (in the case of S. aureus) was transferred to each well of 96-well plates containing 100 µL of serially diluted in water tested compounds. The final concentrations of the compounds were the same as those used in MIC determination studies. The 96-well plates were then incubated for 24 h at 37 °C and 35 °C in the case of bacteria and fungi, respectively. Viability of the microorganisms in the presence of the tested compounds was analyzed by means of MTT assay.
(§3) The reduction in biofilm viability was analyzed by means of MTT assay. Briefly, 20 μL of MTT solution (5 mg/mL in PBS) was added to prewashed wells with exchanged medium (180 μL of fresh medium) wells containing bacterial/yeast biofilms. Plates were then incubated in the dark for the next 3 h at 37 °C. After that time, the medium was replaced with 6 mM HCl in isopropanol and, when the reduced MTT was fully dissolved, the plates were read at 570 nm. Activity against fully developed 24 h old biofilm was described as biofilm eradication concentration (BEC50 expressed in µg/mL), which corresponded to the concentration of the compound able to reduce 50% of biofilm viability compared with the growth control.

[3] = tested on: C.glabrata CCM 8270; assay: MIC, broth microdilution; type: cell-based, Candida glabrata; settings: for MIC100: C.glabrata CCM 8270, 24 h
Excerpt: as §1, §2

[4] = tested on: C.parapsilosis CCM 8260; assay: MIC, broth microdilution; type: cell-based, Candida parapsilosis; settings: C.parapsilosis CCM 8260, 24 h
Excerpt: as §1, §2

[5] = tested on: C. albicans (CCM 8186) biofilm; assay: Biofilm eradication assay, pre-formed 24 h old biofilm (MTT); type: cell-based, Candida albicans; settings: C. albicans pre-formed 24 h old biofilm, 24 h treatment
Description: In the case of yeasts, the overnight culture of C. albicans in Sabouraud dextrose broth (SB) was used for inoculum preparation. Similar to above, 5 mL of 24 h culture was centrifuged, washed with PBS and then suspended in sterile RPMI-1640 medium (with L-glutamine, without sodium bicarbonate) supplemented with 2% glucose (RPMI-1640/+G) yielding the amount of about 1 × 10^7 cells per ml. Subsequently, 200 µL of yeast suspension was transferred into each well of a microtiter plate, and it was incubated stationary for the next 24 h at 35 °C.
(§4) After that, each well of the plates containing bacterial or fungi biofilm was washed three times with PBS in order to remove all non-adherent cells. Then, peptide solutions of 200 µL ranging from 50 to 0,39 µg/mL prepared in TSB +/G in the case of experiments on S. aureus biofilm, and (RPMI-1640/+G) in the case of C. alibcans, were prepared and transferred into the microtiter plates. After the addition of the peptides, the experiments were continued for the next 24 h.
as §3

[6] = tested on: S. epidermidis PCM 2118; assay: MIC, broth microdilution; type: cell-based, Staphylococcus epidermidis; settings: S. epidermidis PCM 2118, 24 h
Excerpt: as §1, §2

[7] = tested on: C.albicans CCM 8186; assay: MIC, broth microdilution; type: cell-based, Candida albicans; settings: for MIC100: C.albicans CCM 8186, 24 h
Excerpt: as §1, §2

[8] = tested on: S. aureus (PCM 2054) biofilm; assay: Biofilm eradication assay, pre-formed 24 h old biofilm (MTT); type: cell-based, Staphylococcus aureus; settings: S. aureus pre-formed 24 h old biofilm, 24 h treatment
Description: Biofilm eradication activity of the synthesized compounds was analyzed against 24 h old biofilms of S. aureus and C. albicans. In the case of bacteria, an overnight culture of S. aureus in Tryptic Soy Broth (TSB) supplemented with 2% glucose (TSB/+G) was used to prepare inoculum for the experiments. Briefly, 5 mL of 24 h culture was centrifuged at 5000× g, washed with sterile PBS and suspended in a fresh TSB/+G. The bacterial suspension was then diluted in a fresh growth medium to obtain the final concentration of colonies of about 1 × 10^7 cells per ml. Further, 200 μL of the inoculum was transferred to each well of 96-well sterile polystyrene flat-bottomed plate, and bacteria were then incubated for the next 24 h without shaking at 37 °C.
as §4, §3

| Compound | MIC100 [1] | BIC50 [2] | MIC100 [3] | MIC100 [4] | BEC50 [5] | MIC100 [6] | MIC100 [7] | BEC50 [8] | fold improved activity in comparison to the parent DK5 ([3]; C. glabrata, MIC) | fold improved activity in comparison to the parent DK5 ([7]; C. albicans, MIC) |
| --- | --- | --- | --- | --- | --- | --- | --- | --- | --- | --- |
| CCCCC(=O)NCCC(=O)N[C@@H](Cc1c[nH]cn1)C(=O)NCCOCCOCC(=O)N[C@H](C(=O)N[C@@H](CCCCN)C(=O)N[C@@H](CCCCN)C(=O)N[C@H](C(=O)N[C@@H](CC(C)C)C(=O)N[C@@H](CO)C(=O)N[C@@H](CCCCN)C(=O)N[C@H](C(=O)N[C@@H](CCCCN)C(=O)N[C@@H](CCCCN)C(=O)N[C@@H](CC(C)C)C(=O)N[C@@H](CC(C)C)C(N)=O)[C@@H](C)CC)[C@@H](C)CC)[C@@H](C)CC [C5-CAR-PEG-DK5] ({Pentanoyl-βAla}-H[AEEA]IKKILSKIKKLL-NH2) | >50 µg/mL | >50 µg/mL | >50 µg/mL | 50 µg/mL (≈ 26.9 µM) | 20 µg/mL | 6.25 µg/mL (≈ 3.36 µM) | >50 µg/mL | >50 µg/mL | – | – |
| CCCCCCCCCCCC(=O)N[C@H](C(=O)N[C@@H](CCCCN)C(=O)N[C@@H](CCCCN)C(=O)N[C@H](C(=O)N[C@@H](CC(C)C)C(=O)N[C@@H](CO)C(=O)N[C@@H](CCCCN)C(=O)N[C@H](C(=O)N[C@@H](CCCCN)C(=O)N[C@@H](CCCCN)C(=O)N[C@@H](CC(C)C)C(=O)N[C@@H](CC(C)C)C(N)=O)[C@@H](C)CC)[C@@H](C)CC)[C@@H](C)CC [Compound C12-DK5] (Lauroyl-IKKILSKIKKLL-NH2) | 12.5 µg/mL (≈ 7.78 µM) | 6.25 µg/mL | 3.13 µg/mL (≈ 1.95 µM) | 3.13 µg/mL (≈ 1.95 µM) | – | 0.78 µg/mL (≈ 0.486 µM) | 3.13 µg/mL (≈ 1.95 µM) | 6.25 µg/mL | ~20 fold | about 10 fold |
| CCCCCCCCCCCCCCCC(=O)N[C@H](C(=O)N[C@@H](CCCCN)C(=O)N[C@@H](CCCCN)C(=O)N[C@H](C(=O)N[C@@H](CC(C)C)C(=O)N[C@@H](CO)C(=O)N[C@@H](CCCCN)C(=O)N[C@H](C(=O)N[C@@H](CCCCN)C(=O)N[C@@H](CCCCN)C(=O)N[C@@H](CC(C)C)C(=O)N[C@@H](CC(C)C)C(N)=O)[C@@H](C)CC)[C@@H](C)CC)[C@@H](C)CC [Compound C16-DK5] (Palmitoyl-IKKILSKIKKLL-NH2) | >50 µg/mL | >50 µg/mL | >50 µg/mL | – | 12.5 µg/mL | 25 µg/mL (≈ 15 µM) | >50 µg/mL | 6.25 µg/mL | – | – |
| CCCCC(=O)N[C@H](C(=O)N[C@@H](CCCCN)C(=O)N[C@@H](CCCCN)C(=O)N[C@H](C(=O)N[C@@H](CC(C)C)C(=O)N[C@@H](CO)C(=O)N[C@@H](CCCCN)C(=O)N[C@H](C(=O)N[C@@H](CCCCN)C(=O)N[C@@H](CCCCN)C(=O)N[C@@H](CC(C)C)C(=O)N[C@@H](CC(C)C)C(N)=O)[C@@H](C)CC)[C@@H](C)CC)[C@@H](C)CC [Compound C5-DK5] (Pentanoyl-IKKILSKIKKLL-NH2) | 12.5 µg/mL (≈ 8.29 µM) | 10 µg/mL | 6.25 µg/mL (≈ 4.14 µM) | 3.13 µg/mL (≈ 2.08 µM) | 12.5 µg/mL | 0.78 µg/mL (≈ 0.517 µM) | 6.25 µg/mL (≈ 4.14 µM) | >50 µg/mL | – | – |
| CC[C@H](C)[C@H](NC(=O)COCCOCCNC(=O)[C@H](Cc1c[nH]cn1)NC(=O)CCNC(=O)CCCCCN)C(=O)N[C@@H](CCCCN)C(=O)N[C@@H](CCCCN)C(=O)N[C@H](C(=O)N[C@@H](CC(C)C)C(=O)N[C@@H](CO)C(=O)N[C@@H](CCCCN)C(=O)N[C@H](C(=O)N[C@@H](CCCCN)C(=O)N[C@@H](CCCCN)C(=O)N[C@@H](CC(C)C)C(=O)N[C@@H](CC(C)C)C(N)=O)[C@@H](C)CC)[C@@H](C)CC [AHX-CAR-PEG-DK5] (H-[Ahx][βAla]H[AEEA]IKKILSKIKKLL-NH2) | >50 µg/mL | >50 µg/mL | >50 µg/mL | 50 µg/mL (≈ 26.4 µM) | 20 µg/mL | 6.25 µg/mL (≈ 3.31 µM) | >50 µg/mL | >50 µg/mL | – | – |
| CCCCCCCCCCCCCCCC(=O)NCCC(=O)N[C@@H](Cc1c[nH]cn1)C(=O)NCCOCCOCC(=O)N[C@H](C(=O)N[C@@H](CCCCN)C(=O)N[C@@H](CCCCN)C(=O)N[C@H](C(=O)N[C@@H](CC(C)C)C(=O)N[C@@H](CO)C(=O)N[C@@H](CCCCN)C(=O)N[C@H](C(=O)N[C@@H](CCCCN)C(=O)N[C@@H](CCCCN)C(=O)N[C@@H](CC(C)C)C(=O)N[C@@H](CC(C)C)C(N)=O)[C@@H](C)CC)[C@@H](C)CC)[C@@H](C)CC [C16-CAR-PEG-DK5] ({Palmitoyl-βAla}-H[AEEA]IKKILSKIKKLL-NH2) | >50 µg/mL | 25 µg/mL | >50 µg/mL | 6.25 µg/mL (≈ 3.1 µM) | 15 µg/mL | 25 µg/mL (≈ 12.4 µM) | 25 µg/mL (≈ 12.4 µM) | 6.25 µg/mL | – | – |
| CCCCCCCCCCCC(=O)NCCC(=O)N[C@@H](Cc1c[nH]cn1)C(=O)NCCOCCOCC(=O)N[C@H](C(=O)N[C@@H](CCCCN)C(=O)N[C@@H](CCCCN)C(=O)N[C@H](C(=O)N[C@@H](CC(C)C)C(=O)N[C@@H](CO)C(=O)N[C@@H](CCCCN)C(=O)N[C@H](C(=O)N[C@@H](CCCCN)C(=O)N[C@@H](CCCCN)C(=O)N[C@@H](CC(C)C)C(=O)N[C@@H](CC(C)C)C(N)=O)[C@@H](C)CC)[C@@H](C)CC)[C@@H](C)CC [C12-CAR-PEG-DK5] ({Lauroyl-βAla}-H[AEEA]IKKILSKIKKLL-NH2) | >50 µg/mL | – | 12.5 µg/mL (≈ 6.38 µM) | 3.13 µg/mL (≈ 1.6 µM) | 12.5 µg/mL | 0.78 µg/mL (≈ 0.398 µM) | 12.5 µg/mL (≈ 6.38 µM) | – | – | – |
